From US9353082B2, “Pharmaceutical compounds” (BIAL—PORTELA & CA, S.A., priority 2008, dated 2016)

How the values were obtained:
FAAH [1] = biological target: T1, FAAH (Rattus norvegicus, UniProt P97612); test: In vitro FAAH activity in rat brain membranes, 3H-AEA substrate, % of control; format: biochemical, Wistar rats; conditions: low value = strong inhibitor; for In Vitro FAAH activity, 100 nM: 100 nM test compound; for In Vitro FAAH activity, 10 uM: 10 uM test compound
T1 construct: Frozen brains (without cerebellum) from Wistar rats were used; from tissue; host or cells: Wistar rat brain (without cerebellum), washed membrane pellets
T1 sequence (P97612 1-579): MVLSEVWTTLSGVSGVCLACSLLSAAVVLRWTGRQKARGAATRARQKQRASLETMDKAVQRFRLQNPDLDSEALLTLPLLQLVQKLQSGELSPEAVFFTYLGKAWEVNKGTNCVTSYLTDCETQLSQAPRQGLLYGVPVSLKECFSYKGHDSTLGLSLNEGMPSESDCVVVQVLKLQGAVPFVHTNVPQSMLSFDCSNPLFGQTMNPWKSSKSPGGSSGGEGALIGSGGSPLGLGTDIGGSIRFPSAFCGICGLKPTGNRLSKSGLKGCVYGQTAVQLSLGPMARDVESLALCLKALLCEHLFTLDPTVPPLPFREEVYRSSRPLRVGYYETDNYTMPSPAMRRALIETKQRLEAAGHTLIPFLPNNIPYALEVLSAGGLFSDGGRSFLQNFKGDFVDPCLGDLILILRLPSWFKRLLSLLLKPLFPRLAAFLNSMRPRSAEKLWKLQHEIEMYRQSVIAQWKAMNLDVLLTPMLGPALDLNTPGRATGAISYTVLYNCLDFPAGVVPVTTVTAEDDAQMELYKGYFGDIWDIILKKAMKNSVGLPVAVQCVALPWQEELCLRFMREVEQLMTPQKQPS
How it was run: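 Wistar rat brain membranes (5 μg protein) preincubated 15 min at 37 °C with compound at 10 μM or 0.1 μM (0.1% DMSO), then 2 μM AEA including 3H-AEA with 0.1% BSA, Tris pH 7.6, 10 min. 3H-ethanolamine counted after charcoal stop; % of no-compound control after blank subtraction.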

FAAH [2] = biological target: T2, FAAH (Mus musculus, UniProt O08914); test: In vivo FAAH inhibition after oral dosing, remaining activity in liver homogenate (LVh, peripheral tissue); set-up: species or system NMRI mice; conditions: liver homogenate
T2 construct: A fragment of liver, left lung lobe and brain without cerebellum were removed; from tissue; host or cells: male NMRI mice; brain (without cerebellum) and liver homogenates
T2 sequence (O08914 1-579): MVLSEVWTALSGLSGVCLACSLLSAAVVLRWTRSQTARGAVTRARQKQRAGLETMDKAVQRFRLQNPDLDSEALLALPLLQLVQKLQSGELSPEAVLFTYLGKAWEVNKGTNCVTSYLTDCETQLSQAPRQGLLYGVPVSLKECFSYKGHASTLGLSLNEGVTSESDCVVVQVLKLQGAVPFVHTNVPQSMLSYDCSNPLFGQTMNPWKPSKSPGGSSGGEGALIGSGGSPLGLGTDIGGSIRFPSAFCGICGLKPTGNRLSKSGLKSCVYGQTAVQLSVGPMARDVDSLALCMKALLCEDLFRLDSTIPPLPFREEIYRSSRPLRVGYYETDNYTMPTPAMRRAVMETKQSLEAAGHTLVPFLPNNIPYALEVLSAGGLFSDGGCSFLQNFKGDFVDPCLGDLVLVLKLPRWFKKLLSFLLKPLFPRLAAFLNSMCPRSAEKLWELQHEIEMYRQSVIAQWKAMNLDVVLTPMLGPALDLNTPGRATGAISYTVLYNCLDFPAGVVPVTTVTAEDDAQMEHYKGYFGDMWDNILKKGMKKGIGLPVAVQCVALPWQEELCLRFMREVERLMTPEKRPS
How it was run: (§1)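 Male NMRI mice, fasted overnight, got 30 or 3 mg/kg compound orally (0.5% CMC suspension or water) and were compared with vehicle controls. Brain (no cerebellum) and liver homogenates were incubated with 2 μM AEA plus 5 nM 3H-AEA at 37 °C, 10 min for brain and 7 min for liver. Remaining FAAH activity is % of vehicle after blank subtraction.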

FAAH [3] = biological target: T2, FAAH; test: In vivo FAAH inhibition after oral dosing, remaining activity in brain homogenate (BRh, central nervous tissue); set-up: species or system NMRI mice; conditions: brain homogenate
How it was run: as §1

| Structure (SMILES) | In Vitro FAAH activity, 100 nM (FAAH [1]) | In Vitro FAAH activity, 10 uM (FAAH [1]) | In Vivo LVh 30 mg/kg 1 h, remaining FAAH activity (FAAH [2]) | In Vivo BRh 30 mg/kg 1 h, remaining FAAH activity (FAAH [3]) | In Vivo LVh 3 mg/kg 8 h, remaining FAAH activity (FAAH [2]) | In Vivo BRh 3 mg/kg 8 h, remaining FAAH activity (FAAH [3]) |
| --- | --- | --- | --- | --- | --- | --- |
| CN(C(=O)n1nnc2cc(Cl)ccc21)c1ccccc1 [Compound 33, 5-chloro-N-methyl-N-phenyl-1H-benzo[d][1,2,3]triazole-1-carboxamide] | 6.2 % of control | 0 % of control | 76.7 % of control | 82.3 % of control | – | – |
| CN(C(=O)n1nnc2ccccc21)c1ccccc1 [Compound 34, N-methyl-N-phenyl-1H-benzo[d][1,2,3]triazole-1-carboxamide] | 0.6 % of control | 0 % of control | 34.3 % of control | 33.6 % of control | – | – |
| CN(C(=O)n1cnc(-c2cccc(O)c2)c1)c1ccccc1 [Compound 40, 4-(3-hydroxyphenyl)-N-methyl-N-phenyl-1H-imidazole-1-carboxamide] | 88.8 % of control | 0.1 % of control | 4.5 % of control | 81.5 % of control | 25.6 % of control | 102.8 % of control |
| O=C(N1CCN(c2ccccc2)CC1)n1nnc2ccccc21 [Compound 41, (1H-benzo[d][1,2,3]triazol-1-yl)(4-phenylpiperazin-1-yl)methanone] | 0 % of control | 0 % of control | 30 % of control | 87.6 % of control | – | – |
| O=C(N1CCC(Cc2ccccc2)CC1)n1nnc2ccccc21 [Compound 42, (1H-benzo[d][1,2,3]triazol-1-yl)(4-benzylpiperidin-1-yl)methanone] | 0 % of control | 0 % of control | 6.4 % of control | 8.4 % of control | – | – |
| O=C(N1CCN(Cc2ccc3c(c2)OCO3)CC1)n1nnc2ccccc21.O=C(O)C(=O)O [Compound 48, (1H-benzo[d][1,2,3]triazol-1-yl)(4-(benzo[d][1,3]dioxol-5-ylmethyl)piperazin-1-yl)methanone oxalate] | 0.1 % of control | – | 20.1 % of control | 21.8 % of control | – | – |
| O=C(N1CCN(c2ccccn2)CC1)n1nnc2ccccc21 [Compound 49, (1H-benzo[d][1,2,3]triazol-1-yl)(4-(pyridin-2-yl)piperazin-1-yl)methanone] | 0.1 % of control | – | 14.9 % of control | 16.9 % of control | – | – |
| O=C(N1CCc2ccccc2C1)n1nnc2ccccc21 [Compound 50, (1H-benzo[d][1,2,3]triazol-1-yl)(3,4-dihydroisoquinolin-2(1H)-yl)methanone] | 0 % of control | – | 7.8 % of control | 32.6 % of control | – | – |
| O=C(N1CCCc2ccccc21)n1cnc(-c2cccc(O)c2)c1 [Compound 51, (3,4-dihydroquinolin-1(2H)-yl)(4-(3-hydroxyphenyl)-1H-imidazol-1-yl)methanone] | 100.8 % of control | – | – | – | 132.3 % of control | 130.4 % of control |
| CN(Cc1ccccc1)C(=O)n1nnc2ccccc21 [Compound 53, N-benzyl-N-methyl-1H-benzo[d][1,2,3]triazole-1-carboxamide] | 0 % of control | – | 6.3 % of control | 1.4 % of control | – | – |
| O=C(N1CCC2(CC1)OCCO2)n1nnc2ccccc21 [Compound 55, 1H-benzo[d][1,2,3]triazol-1-yl(1,4-dioxa-8-azaspiro[4.5]dec-8-yl)methanone] | 0.2 % of control | – | 2.5 % of control | 2.2 % of control | 37.8 % of control | 42.6 % of control |
| CN(C(=O)n1nnc2ccccc21)C1CCCCC1 [Compound 58, N-cyclohexyl-N-methyl-1H-benzo[d][1,2,3]triazole-1-carboxamide] | 1 % of control | – | 0.9 % of control | 0.3 % of control | 0.3 % of control | 0.5 % of control |
| O=C(NCc1ccccc1)n1nnc2ccccc21 [Compound 61, N-benzyl-1H-benzo[d][1,2,3]triazole-1-carboxamide] | 2.2 % of control | – | 83.9 % of control | 87.5 % of control | – | – |
| CN(C(=O)n1nnc2ccccc21)c1ccc(Cl)cc1 [Compound 63, N-(4-chlorophenyl)-N-methyl-1H-benzo[d][1,2,3]triazole-1-carboxamide] | 12.6 % of control | – | 49.7 % of control | 57 % of control | – | – |
| CN(C(=O)n1nnc2ccccc21)c1ccc(F)cc1F [Compound 70, N-(2,4-difluorophenyl)-N-methyl-1H-benzo[d][1,2,3]triazole-1-carboxamide] | 1.9 % of control | – | 42.5 % of control | 52 % of control | – | – |
| CC1(C)COCN1C(=O)n1nnc2ccccc21 [Compound 71, (1H-benzo[d][1,2,3]triazol-1-yl)(4,4-dimethyloxazolidin-3-yl)methanone] | 2.3 % of control | 0.1 % of control | 2.2 % of control | 0.3 % of control | 2.5 % of control | 1.8 % of control |
| CCCCN(C)C(=O)n1nnc2ccccc21 [Compound 75, N-butyl-N-methyl-1H-benzo[d][1,2,3]triazole-1-carboxamide] | 0 % of control | – | 2.7 % of control | 0.4 % of control | – | – |
| O=C(N1CCC(Cc2ccccc2)CC1)n1cnc(-c2ccc(F)cc2F)n1 [Compound 79, (4-benzylpiperidin-1-yl)(3-(2,4-difluorophenyl)-1H-1,2,4-triazol-1-yl)methanone] | 0.8 % of control | – | 9.8 % of control | 10.3 % of control | 45.2 % of control | 70 % of control |
| O=C(NC1CCCCC1)n1nnc2ccccc21 [Compound 87, N-cyclohexyl-1H-benzo[d][1,2,3]triazole-1-carboxamide] | 0 % of control | – | – | – | 4 % of control | 3.4 % of control |
